# Experimental data taken from publication PMC11477141, “Chemokine Receptor N-Terminus Charge Dictates Reliance on Post-Translational Modifications for Effective Ligand Capture and Following Boosting by Defense Peptides” (International Journal of Molecular Sciences, 2024).
# Where no end group is shown, it is not given here.
# Key:
# Y14Y15AA-CCR5 = test: BRET CAMYEL Gαi signaling via Y14Y15AA-CCR5; format: cell-based, human; conditions: CHO cells, n = 3
# Protocol: (§1) BRET measurements of Gαi signaling and β-arrestin recruitment: Cells were seeded in 6-well plates (500,000 cells/well) and transiently transfected the following day. For BRET measurements of Gαi signaling, cells were transfected with vectors encoding the human chemokine receptors as indicated (160 ng/well) and the CAMYEL sensor (cAMP sensor, YFP-Epac-RLuc) (840 ng/well) using Lipofectamine (6 µL/well). Briefly, DNA was dissolved in 125 µL OPTI-MEM and Lipofectamine was dissolved in 125 µL OPTI-MEM. The DNA and Lipofectamine solutions were combined into a transfection mixture. The transfection mixture was added dropwise to cells incubated in OPTI-MEM (1 mL/well). Transfections were terminated after 5 h by adding 1 mL of fresh culture medium on top of the OPTI-MEM. The following day the cells were loosened from the plates in PBS with 5 mM glucose and subsequently aliquoted in white 96-well iso plates (~25,000 cells/well). […] The BRET signal is determined as the ratio eYFP (530 nm)/Rluc (480 nm).
# (§2) BRET principle with CAMYEL: For quantification of signaling initiated immediately downstream of receptor activation, we used the cAMP binding CAMYEL sensor to perform bioluminescence resonance energy transfer (BRET) based assays. […] The BRET ratio is determined as the ratio between YFP/Rluc, and an increase in BRET ratio indicates a decrease in cAMP and thus increased chemokine receptor activation. […]
# T16S17AA-CCR5 = test: BRET CAMYEL Gαi signaling via T16S17AA-CCR5; format: cell-based, human; conditions: CHO cells, n = 3
# Protocol: as §1, §2
# CCR5 = molecular target: T1, CCR5 (Homo sapiens, UniProt P51681); test: BRET CAMYEL cAMP sensor assay of ligand-induced Gαi signaling via CCR5; format: cell-based; conditions: n = 3
# T1 construct: expressed in transfected cells; host or cells: CHO-K1, CHO-pgsB618 (GAG-minus), HEK293 WT / DeltaSia / sC
# Protocol: For quantification of signaling initiated immediate downstream of receptor activation, we used the cAMP binding CAMYEL sensor to perform bioluminescence resonance energy transfer (BRET)-based assays. Shortly, in this assay increased receptor activation leads to an increase in BRET ratio. For detailed information see the Materials and Methods section.
# In signaling assays testing the boosting ability of basic peptides, transfected cells were aliquoted into 96-well plates in the presence of 10 µM peptide or PBS vehicle. After R-Luc substrate addition, chemokines were added to reach final concentrations ranging from 0–100 nM (0, 0.1, 1, 10, and 100 nM) and forskolin was applied before reading emission at 475 and 525 nm.
# BRET measurements of Gαi signaling and β-arrestin recruitment: Cells were seeded in 6-well plates (500,000 cells/well) and transiently transfected the following day. For BRET measurements of Gαi signaling, cells were transfected with vectors encoding the human chemokine receptors as indicated (160 ng/well) and the CAMYEL sensor (cAMP sensor, YFP-Epac-RLuc) (840 ng/well) using Lipofectamine (6 µL/well). Briefly, DNA was dissolved in 125 µL OPTI-MEM and Lipofectamine was dissolved in 125 µL OPTI-MEM. The DNA and Lipofectamine solutions were combined into a transfection mixture. The transfection mixture was added dropwise to cells incubated in OPTI-MEM (1 mL/well). Transfections were terminated after 5 h by adding 1 mL of fresh culture medium on top of the OPTI-MEM. The following day the cells were loosened from the plates in PBS with 5 mM glucose and subsequently aliquoted in white 96-well iso plates (~25,000 cells/well). When using C21TP variants and defense peptides (hBD2 and histatin), these were added to a final concentration of 10 μM/well, while an equal amount of PBS was added to control cells. The bioluminescence substrate coelenterazine was added to a final conc. of 5 µM. After 10 min, varying ligand concentrations were added. For BRET measurements of Gαi signaling, forskolin was added 5 min after the addition of the ligand, to a final conc. of 5 µM. The plates were kept in the dark at all times. A Perkin Elmer Envision machine was used for measuring the emission signals at 530 and 480 nm. The BRET signal is determined as the ratio eYFP (530 nm)/Rluc (480 nm).
# BRET principle with CAMYEL: For quantification of signaling initiated immediately downstream of receptor activation, we used the cAMP binding CAMYEL sensor to perform bioluminescence resonance energy transfer (BRET) based assays. In this assay we measure changes in intracellular cAMP levels in response to receptor activation. Activation of chemokine receptors lead to a decrease in cAMP through inhibition of adenylate cyclase (AC). In the current setup we initially add forskolin that stimulates AC directly to induce an increase in intracellular cAMP, and we then measure the ability of a ligand (chemokine) to counteract the forskolin-induced increase in cAMP. The cAMP sensor (CAMYEL cAMP sensor, YFP-Epac-RLuc) carries the donor Renilla luciferase (Rluc) and the acceptor YFP. Coelenterazine is a substrate for Rluc that will emit light at around 475 nm upon enzymatic cleavage catalyzed by Rluc. When Rluc and YFP are in close proximity, the energy from the emitted light from coelenterazine can be transferred to YFP, resulting in an excitation of YFP, leading to a BRET signal around 525 nm. EPAC is a cAMP binding protein that changes conformation upon cAMP binding. During low cAMP concentrations, Rluc and YFP are near each other, and a strong BRET signal at 525 nm is obtained. When cAMP levels increase, cAMP will bind to EPAC, creating a conformational change, separating Rluc and YFP, reducing the BRET ratio, and increasing the emission from Rluc at 475 nm. Thus, by measuring the ratio between the cAMP-bound (475 nm) and the cAMP-free (525 nm) state of CAMYEL we obtain a measure of receptor activation. […]
# [1] = CHO-K1 cells, 10 µM peptide, chemokine 0-100 nM
# [2] = HEK293 WT, DeltaSia and sC cells, 10 µM peptide
# [3] = M1-tagged CCR5, HEK293 WT, DeltaSia and sC cells, 10 µM peptide
# T1 sequence (P51681 whole entry): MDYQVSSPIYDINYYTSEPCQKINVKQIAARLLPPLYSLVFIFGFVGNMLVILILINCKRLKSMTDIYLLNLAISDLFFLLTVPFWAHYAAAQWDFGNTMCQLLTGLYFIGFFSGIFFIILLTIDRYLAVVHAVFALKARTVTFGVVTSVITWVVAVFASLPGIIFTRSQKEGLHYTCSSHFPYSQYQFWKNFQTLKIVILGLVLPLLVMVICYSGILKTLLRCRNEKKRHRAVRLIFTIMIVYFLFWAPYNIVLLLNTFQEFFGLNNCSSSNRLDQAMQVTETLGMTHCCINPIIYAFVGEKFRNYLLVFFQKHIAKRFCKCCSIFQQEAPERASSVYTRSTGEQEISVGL
substance,measurement,setting,value
RKDRGASKTGKKGKGSKGCKRTERSQTPKGP [C21TP^81-111],boosting of CCL5 signaling via Y1415AA receptor variant,Y14Y15AA-CCR5; 10 µM peptide,maintained
same,boosting of CCL5 signaling via T16S17AA receptor variant,T16S17AA-CCR5; 10 µM peptide,maintained
same,boosting of CCL5 signaling via CCR5 in GAG-plus (WT) and GAG-minus cells,"CCR5; CHO GAG-plus and CHO GAG-minus (CHO-pgsB618) cells, 10 µM peptide",boosted
same,boosting of CCL5-induced Gαi signaling via CCR5,CCR5; [1],boosted
same,boosting of CCL8-induced Gαi signaling via CCR5,CCR5; [1],boosted
same,effect on CCL3-induced Gαi signaling via CCR5,CCR5; [1],not affected
same,"boosting of signaling by CCL5, E26A and E66A via CCR5","CCR5; HEK293 DeltaSia and sC cells, 10 µM peptide",lost
same,"boosting of signaling by CCL5, E26A and E66A via CCR5","CCR5; HEK293 WT cells, 10 µM peptide",boosting occurs with all three versions of CCL5
same,boosting of CCL3 signaling via CCR5,CCR5; [2],absent
same,boosting of CCL5 signaling via CCR5,CCR5; [2],observed in all three cell lines
same,boosting of CCL8 signaling via CCR5,CCR5; [2],absent
same,boosting of E66A signaling via CCR5,"CCR5; HEK293 sC cells, 10 µM peptide",significantly boosted
same,boosting of CCL3-induced signaling via M1-CCR5,CCR5; [3],not boosted
same,boosting of CCL5-induced signaling via M1-CCR5,CCR5; [3],boosted
same,boosting of CCL8-induced signaling via M1-CCR5,CCR5; [3],not boosted
"CCL5: human chemokine from Peprotech, overall basic",Gαi signaling via Y14Y15AA-CCR5 compared to WT-CCR5,Y14Y15AA-CCR5,completely abolished
same,Gαi signaling via T16S17AA-CCR5 compared to WT-CCR5,T16S17AA-CCR5,improved
same,LogEC50 of CCL5-induced Gαi signaling via CCR5,"CCR5; CHO GAG-plus (WT CHO-K1) cells, CCL5 alone without peptide",−7.522 ± 0.639
same,Gαi signaling via CCR5 in DeltaSia cells compared to WT cells,CCR5; HEK293 DeltaSia (ST3GAL1/2 KO),significantly impaired
same,Gαi signaling via CCR5 in DeltaSia and sC cells,"CCR5; HEK293 DeltaSia and sC, CCL5 oligomerization variants experiment",very low
same,Gαi signaling via CCR5 in sC cells compared to WT cells,CCR5; HEK293 sC (C1GALT1 KO),almost abolished
same,Gαi signaling via M1-CCR5 in DeltaSia and sC cells compared to WT cells,"CCR5; M1-tagged CCR5, HEK293 DeltaSia and sC",drastically reduced
